From the NIST ThermoML archive (doi:10.1016/j.jct.2014.05.016)
Numbers after ± are expanded uncertainties.

Assay: xn = mol fraction of the nth substance listed
Details: 100 kPa, Liquid; for viscosity: Concentric cylinders viscometry; for mass density: Vibrating tube method

CCCC[n+]1ccccc1.F[B-](F)(F)F [1-butylpyridinium tetrafluoroborate] + CCCCn1cc[n+](C)c1.F[B-](F)(F)F
viscosity (293.15 K, x2 = 0): 228.9 ± 19 mPa·s | viscosity (293.15 K, x2 = 0.1009): 219.4 ± 18 mPa·s | viscosity (293.15 K, x2 = 0.2005): 209.3 ± 17 mPa·s | viscosity (293.15 K, x2 = 0.3003): 199.5 ± 16 mPa·s | viscosity (293.15 K, x2 = 0.4001): 190 ± 16 mPa·s | viscosity (293.15 K, x2 = 0.4999): 180.9 ± 15 mPa·s | viscosity (293.15 K, x2 = 0.6007): 172.5 ± 14 mPa·s | viscosity (293.15 K, x2 = 0.7004): 163.9 ± 13 mPa·s | viscosity (293.15 K, x2 = 0.8001): 156.9 ± 13 mPa·s | viscosity (293.15 K, x2 = 0.8998): 148.7 ± 12 mPa·s | mass density (293.15 K, x2 = 0): 1216.6 ± 1.1 kg/m3 | mass density (293.15 K, x2 = 0.1007): 1215.4 ± 1.1 kg/m3 | mass density (293.15 K, x2 = 0.2004): 1214.3 ± 1.1 kg/m3 | mass density (293.15 K, x2 = 0.3001): 1213.1 ± 1.1 kg/m3 | mass density (293.15 K, x2 = 0.4004): 1211.7 ± 1.1 kg/m3 | mass density (293.15 K, x2 = 0.5009): 1210.6 ± 1.1 kg/m3 | mass density (293.15 K, x2 = 0.6004): 1209.4 ± 1.1 kg/m3 | mass density (293.15 K, x2 = 0.7013): 1208.1 ± 1.1 kg/m3 | mass density (293.15 K, x2 = 0.8007): 1206.7 ± 1.1 kg/m3 | mass density (293.15 K, x2 = 0.8987): 1205.5 ± 1.1 kg/m3 | viscosity (298.15 K, x2 = 0): 166.9 ± 14 mPa·s | viscosity (298.15 K, x2 = 0.1009): 160.8 ± 13 mPa·s | viscosity (298.15 K, x2 = 0.2005): 153.7 ± 12 mPa·s | viscosity (298.15 K, x2 = 0.3003): 147.1 ± 12 mPa·s | viscosity (298.15 K, x2 = 0.4001): 140.8 ± 11 mPa·s | viscosity (298.15 K, x2 = 0.4999): 134.6 ± 11 mPa·s | viscosity (298.15 K, x2 = 0.6007): 128.8 ± 10 mPa·s | viscosity (298.15 K, x2 = 0.7004): 123.1 ± 10 mPa·s | viscosity (298.15 K, x2 = 0.8001): 117.9 ± 9.5 mPa·s | viscosity (298.15 K, x2 = 0.8998): 112.7 ± 9.1 mPa·s | mass density (298.15 K, x2 = 0): 1213.1 ± 1.1 kg/m3 | mass density (298.15 K, x2 = 0.1007): 1211.9 ± 1.1 kg/m3 | mass density (298.15 K, x2 = 0.2004): 1210.8 ± 1.1 kg/m3 | mass density (298.15 K, x2 = 0.3001): 1209.6 ± 1.1 kg/m3 | mass density (298.15 K, x2 = 0.4004): 1208.2 ± 1.1 kg/m3 | mass density (298.15 K, x2 = 0.5009): 1207.1 ± 1.1 kg/m3 | mass density (298.15 K, x2 = 0.6004): 1205.8 ± 1.1 kg/m3 | mass density (298.15 K, x2 = 0.7013): 1204.5 ± 1.1 kg/m3 | mass density (298.15 K, x2 = 0.8007): 1203.1 ± 1.1 kg/m3 | mass density (298.15 K, x2 = 0.8987): 1202 ± 1.1 kg/m3 | viscosity (303.15 K, x2 = 0): 124.5 ± 10 mPa·s | viscosity (303.15 K, x2 = 0.1009): 120.4 ± 9.7 mPa·s | viscosity (303.15 K, x2 = 0.2005): 115.6 ± 9.3 mPa·s | viscosity (303.15 K, x2 = 0.3003): 111.1 ± 9 mPa·s | viscosity (303.15 K, x2 = 0.4001): 106.9 ± 8.6 mPa·s | viscosity (303.15 K, x2 = 0.4999): 102.5 ± 8.3 mPa·s | viscosity (303.15 K, x2 = 0.6007): 98.69 ± 8 mPa·s | viscosity (303.15 K, x2 = 0.7004): 94.64 ± 7.6 mPa·s | viscosity (303.15 K, x2 = 0.8001): 90.99 ± 7.3 mPa·s | viscosity (303.15 K, x2 = 0.8998): 87.26 ± 7 mPa·s | mass density (303.15 K, x2 = 0): 1209.6 ± 1.1 kg/m3 | mass density (303.15 K, x2 = 0.1007): 1208.4 ± 1.1 kg/m3 | mass density (303.15 K, x2 = 0.2004): 1207.3 ± 1.1 kg/m3 | mass density (303.15 K, x2 = 0.3001): 1206.1 ± 1.1 kg/m3 | mass density (303.15 K, x2 = 0.4004): 1204.7 ± 1.1 kg/m3 | mass density (303.15 K, x2 = 0.5009): 1203.6 ± 1.1 kg/m3 | mass density (303.15 K, x2 = 0.6004): 1202.3 ± 1.1 kg/m3 | mass density (303.15 K, x2 = 0.7013): 1201 ± 1.1 kg/m3 | mass density (303.15 K, x2 = 0.8007): 1199.6 ± 1.1 kg/m3 | mass density (303.15 K, x2 = 0.8987): 1198.4 ± 1.1 kg/m3 | viscosity (308.15 K, x2 = 0): 94.97 ± 7.6 mPa·s | viscosity (308.15 K, x2 = 0.1009): 92.11 ± 7.4 mPa·s | viscosity (308.15 K, x2 = 0.2005): 88.99 ± 7.2 mPa·s | viscosity (308.15 K, x2 = 0.3003): 85.73 ± 6.9 mPa·s | viscosity (308.15 K, x2 = 0.4001): 82.59 ± 6.6 mPa·s | viscosity (308.15 K, x2 = 0.4999): 79.65 ± 6.4 mPa·s | viscosity (308.15 K, x2 = 0.6007): 76.79 ± 6.2 mPa·s | viscosity (308.15 K, x2 = 0.7004): 73.92 ± 5.9 mPa·s | viscosity (308.15 K, x2 = 0.8001): 71.3 ± 5.7 mPa·s | viscosity (308.15 K, x2 = 0.8998): 68.74 ± 5.5 mPa·s | mass density (308.15 K, x2 = 0): 1206.2 ± 1.1 kg/m3 | mass density (308.15 K, x2 = 0.1007): 1204.9 ± 1.1 kg/m3 | mass density (308.15 K, x2 = 0.2004): 1203.8 ± 1.1 kg/m3 | mass density (308.15 K, x2 = 0.3001): 1202.6 ± 1.1 kg/m3 | mass density (308.15 K, x2 = 0.4004): 1201.2 ± 1.1 kg/m3 | mass density (308.15 K, x2 = 0.5009): 1200.1 ± 1.1 kg/m3 | mass density (308.15 K, x2 = 0.6004): 1198.8 ± 1.1 kg/m3 | mass density (308.15 K, x2 = 0.7013): 1197.5 ± 1.1 kg/m3 | mass density (308.15 K, x2 = 0.8007): 1196.1 ± 1.1 kg/m3 | mass density (308.15 K, x2 = 0.8987): 1194.9 ± 1.1 kg/m3 | viscosity (313.15 K, x2 = 0): 73.94 ± 5.9 mPa·s | viscosity (313.15 K, x2 = 0.1009): 71.92 ± 5.8 mPa·s | viscosity (313.15 K, x2 = 0.2005): 69.59 ± 5.6 mPa·s | viscosity (313.15 K, x2 = 0.3003): 67.3 ± 5.4 mPa·s | viscosity (313.15 K, x2 = 0.4001): 65.09 ± 5.2 mPa·s | viscosity (313.15 K, x2 = 0.4999): 62.92 ± 5 mPa·s | viscosity (313.15 K, x2 = 0.6007): 61 ± 4.9 mPa·s | viscosity (313.15 K, x2 = 0.7004): 58.91 ± 4.7 mPa·s | viscosity (313.15 K, x2 = 0.8001): 56.91 ± 4.6 mPa·s | viscosity (313.15 K, x2 = 0.8998): 54.99 ± 4.4 mPa·s | mass density (313.15 K, x2 = 0): 1202.8 ± 1.1 kg/m3 | mass density (313.15 K, x2 = 0.1007): 1201.5 ± 1.1 kg/m3 | mass density (313.15 K, x2 = 0.2004): 1200.4 ± 1.1 kg/m3 | mass density (313.15 K, x2 = 0.3001): 1199.2 ± 1.1 kg/m3 | mass density (313.15 K, x2 = 0.4004): 1197.8 ± 1.1 kg/m3 | mass density (313.15 K, x2 = 0.5009): 1196.6 ± 1.1 kg/m3 | mass density (313.15 K, x2 = 0.6004): 1195.3 ± 1.1 kg/m3 | mass density (313.15 K, x2 = 0.7013): 1193.9 ± 1.1 kg/m3 | mass density (313.15 K, x2 = 0.8007): 1192.6 ± 1.1 kg/m3 | mass density (313.15 K, x2 = 0.8987): 1191.4 ± 1.1 kg/m3 | viscosity (318.15 K, x2 = 0): 58.64 ± 4.7 mPa·s | viscosity (318.15 K, x2 = 0.1009): 57.19 ± 4.6 mPa·s | viscosity (318.15 K, x2 = 0.2005): 55.49 ± 4.5 mPa·s | viscosity (318.15 K, x2 = 0.3003): 53.81 ± 4.3 mPa·s | viscosity (318.15 K, x2 = 0.4001): 52.19 ± 4.2 mPa·s | viscosity (318.15 K, x2 = 0.4999): 50.59 ± 4.1 mPa·s | viscosity (318.15 K, x2 = 0.6007): 49.12 ± 3.9 mPa·s | viscosity (318.15 K, x2 = 0.7004): 47.51 ± 3.8 mPa·s | viscosity (318.15 K, x2 = 0.8001): 46.14 ± 3.7 mPa·s | viscosity (318.15 K, x2 = 0.8998): 44.72 ± 3.6 mPa·s
